Measured values from patent publication EP0358766A1, “METHOD OF STERILIZING PLANT ANTHERS” (VSESOJUZNY NAUCHNO-ISSLEDOVATELSKY INST. SELSKOKHOZYAISTV. …, priority 1988, dated 1989).

Columns and labels:
Format in all cases: in vivo
[1] = tested on: Sonnenblume Sorte Peredovik; experiment: Field test of pollen sterilisation, sunflower Peredovik
Text: (§1) Die gametozide Aktivität der erfindungsgemäßen Sterilisationsmittel war in Feldversuchen in verschiedenen bodenklimatischen Zonen mit Teilstücken von 10 m^2 Größe in dreibis viermaliger Wiederholung festgestellt. Jedes Sterilisationsmittel wurde mindenstens 5 Jahre lang geprüft.
(§2) Die Entwicklung der Perioden der Organogenese wird zytologisch überwacht. Die Behandlung von Pflanzen mit dem Sterilisationsmittel erfolgt am Anfang der fünften Periode der Organogenese nach Kupermann.
(§3) Zur Kontrolle der chemischen Sterilisation des Sonnenblumenpollens werden für jede Verbindung 45 behandelte Pflanzen je Wiederholung benutzt, wobei 15 Pflanzen zwecks Selbstbestäubung des Blütenkörbchens isoliert werden, 15 Pflanzen mit einem Pollengemisch, gesammelt von 20 bis 25 behandelten isolierten Körbchen, bestäubt werden, und 15 Pflanzen für freie Bestäubung gelassen werden, damit das Ansetzen von Achänen mit dem Pollen der Vaterform kontrolliert worden kann.
(§4) Man beurteilt die Pollensterilität von Pflanzen der Sonnenblume nach der Pollenfertilität und -keimfähigkeit, nach den morphologischen Besonderheiten von Spermien und nach der Fähigkeit von Achänen […] bei der Bestäubung der behandelten isolierten Pflanzen mit dem Pollen der unbehandelten väterlichen Form. Die Lebensfähigkeit der Eizelle wird nach der Samenbildung bei behandelten Pflanzen bei freier Bestäubung der väterlichen Form bestimmt.
Pflanzen der Sonnenblume Sorte Peredovik werden in der V. Periode der Organogenese (nach Kupermann) mit einer 0,2%igen wäßrigen Emulsion von 1,1,3-Tribrompropan, 1,2--Dibrompropan behandelt. Die Emulsion enthält 0,5 Masse% C12-C14-Kalziumalkylbenzolsulfonat und 0,01 Masse% Dimethylsulfoxid als Adjuvans. Der Verbrauch an Präparat beträgt 1,2 kg/ha bei 600 1 Wasserdurchsatz. Die Prüfergebnisse sind in der Tabelle 16 angegeben. Die gleichen Ergebnisse sind bei der Behandlung der Sonnenblume Sorte Peredovik in der VI. Periode der Organogenese erhalten.
Man verfährt analog den Beispielen 85 und 86. Als Sterilisationsmittel dient eine 0,1%ige wäßrige Emulsion von 1,2-Dibrom-3-chlorpropan. Der Verbrauch an Präparat beträgt […]. Die Prüfergebnisse sind in der Tabelle 16 angegeben.

Sonnenblume Linie BK 119 = experiment: Field test of pollen sterilisation, sunflower line BK 119
Text: as §1, §2, §3, §4
Pflanzen der Sonnenblume Linie BK 119 werden mit einer 0,2%igen wäßrigen Emulsion von 1,1,3-Tribrompropan bzw. 1,2-Dibrompropan behandelt. Die Emulsion enthält 0,5 Masse% C12-C14 Natriumalkylbenzolsulfonat und 0,01 Masse% Dimethylformamid als Adjuvans. Der Verbrauch an Präparat beträgt 1,2 kg/ha bei 600 1 Wasserdurchsatz. Die Prüfergebnisse sind in der Tabelle 17 angegeben. Die gleichen Ergebnisse sind bei der Behandlung von Sonnenblume Linie BK in der VI. Periode der Organogenese erhalten.
Man verführt analog den Beispielen 88-89. Als Sterilisationsmittel dient eine 0,1%ige wäßrige Emulsion von 1,2--Dibrom-3-chlorpropan. Der Verbrauch an Präparat beträgt 0,6 kg/ha bei 600 1 Wasserdurchsatz. Die Prüfergebnisse sind in der Tabelle 17 angegeben.

[2] = tested on: tetraploidem Roggen Gibrid 67; experiment: Field test of gametocidal activity, tetraploid rye Gibrid 67; details: period V, 1% aqueous emulsion, 10 kg/ha; for Prozentsatz des Ansetzens von Samen bei freier Bestäubung: control = 100
Text: as §1, §2
(§5) Mit dem Ährenschieben verwirklicht man die Isolierung von Hauptähren und anderen Stockwerken in Pergametbeuteln. Bei Weizen und Tritikale werden Einzelisolatoren benutzt. Bei Roggen schließt man je 1 Ähre von […] verschiedenen nebeneinander befindlichen Pflanzen unter einen gemeinsamen Isolator ein. Bei Hirse wird jede Rispe getrennt isoliert. Der Sterilitätsprozentsatz (X) für Weizen, Roggen, Tritikale und Hirse wird nach der Formel [formula] ermittelt.
(§6) Die Kornzahl in nicht isolierten Ähren von Kontrollpflanzen wird bedingt für 100 % Ansetzen bei freier Bestäubung angenommen.
(§7) Um zuverlässige Angaben zu erhalten, verwendet man 20 bis 25 Isolatoren je Wiederholung für Weizen und Tritikale, 10 bis 15 Isolatoren jeder Wiederholung für Roggen und Hirse.
Pflanzen von tetraploidem Roggen Gibrid 67 werden in der V.Periode der Organogenese mit einer l%igen wäßrigen Emulsion von 1,2,3-Tribrompropan, 1,2-Dibrompropan bzw. 1,2-Dibrom-3-chlorpropan behandelt. Die Emulsion enthält 0,5 Masse% C12-C14-Kalziumalkylbenzolsulfonat und 0,01 Masse% Dimethylsulfoxid. Der Verbrauch an Präparat beträgt 10 kg/ha. Die Prüfergebnisse sind in der Tabelle 10 angegeben. Die gleichen Ergebnisse sind bei der Behandlung von tetraploidem Roggen Gibrid 67 in der VI. Periode der Organogenese erhalten.

[3] = tested on: tetraploidem Roggen Jubileinaya; experiment: Field test of gametocidal activity, tetraploid rye Jubileinaya; details: period V, 1% aqueous emulsion, 8 kg/ha in 800 l water; for Prozentsatz des Ansetzens Samen bei freier Bestäubung: control = 100
Text: as §1, §2, §5, §6, §7
Pflanzen von tetraploidem Roggen Jubileinaya werden in der V. Periode der Organogenese mit einer 1%igen wäßrigen Emulsion von 1,2,3-Tribrompropan, 1,2-Dibrompropan bzw. 1,2-Dibrom-3-chlorpropan behandelt. Die Emulsion enthält 0,5 Masse% C12-C14-Kalziumalkylbenzolsulfonat und 0,01 Masse% Dodezylsulfat. Der Verbrauch an Präparat beträgt 8 kg/ha bei 800 1 Wasserdurchsatz. Die Prüfergebnisse sind in der Tabelle 9 angegeben. Die gleichen Ergebnisse sind bei der Behandlung von tetraploidem Roggen Jubileinaya in der VI. Periode der Organogenese erhalten.

[4] = tested on: diploidem Roggen Gibrid 1864/79; experiment: Field test of gametocidal activity, diploid rye Gibrid 1864/79; details: period V, 1% aqueous emulsion, 6 kg/ha in 600 l water; for Prozentsatz des Ansetzens von Samen bei freier Bestäubung: control = 100
Text: as §1, §2, §5, §6, §7
Pflanzen von diploidem Roggen Gibrid 1864/79 werden in der V. Periode der Organogenese mit einer l%igen wäßrigen Emulsion von 1,2,3-Tribrompropan, 1,2-Dibrompropan, 1,1,1,3--Tetrabromheptan, 1,1,3-Tribromheptan behandelt. Die Emulsion enthält 0,5 Masse% C12-C14-Kalziumalkylbenzolsulfonat und 0,01 Masse% Äthylenglykol. Der Verbrauch an Präparat beträgt 6 kg/ha bei 600 1 Wasserdurchsatz. Die Prüfergebnisse sind in der Tabelle 12 angegeben. Die gleichen Ergebnisse sind bei der Behandlung von diploidem Roggen Gibrid 1864/79 in der VI. Periode der Organogenese erhalten.

[5] = tested on: tetraploidem Roggen Ukrainskaya tetra; experiment: Field test of gametocidal activity, tetraploid rye Ukrainskaya tetra; details: period V, 1% aqueous emulsion, 6 kg/ha in 600 l water; for Prozentsatz des Ansetzens von Samen bei freier Bestäubung: control = 100
Text: as §1, §2, §5, §6, §7
Pflanzen von tetraploidem Roggen Ukrainskaya tetra werden in der V.Periode der Organogenese (nach Kupermann) mit einer 1%igen wäßrigen Emulsion von 1,2,3-Tribrompropan, 1,2-Dibrompropan bzw. 1,2-Dibrom-3-chlorpropan behandelt. Die Emulsion enthält 0,5 Masse% C12-C14-Kalzium- alkylbenzolsulfonat und 0,01 Masse% Tetrahydrofuran. Der Verbrauch an Präparat beträgt 6 kg/ha bei 600 1 Wasserdurchsatz. Als Kontrolle dienen Pflanzen, behandelt mit dem Verdünner ohne Sterilisationsmittel. Die Prüfergebnisse sind in der Tabelle 8 angegeben. Die gleichen Ergebnisse sind bei der Behandlung von tetraploidem Roggen Ukrainskaya in der VI. Periode der Organogenese erhalten.

[6] = period V, 0.2% aqueous emulsion, 1.2 kg/ha in 600 l water
[7] = 0.2% aqueous emulsion, 1.2 kg/ha in 600 l water
[8] = 0.1% aqueous emulsion, 1.0 kg/ha
[9] = 0.1% aqueous emulsion, 0.6 kg/ha in 600 l water

SMILES	Ansetzen bei freier Bestäubung in % [1, 6]	Ansetzen im Isolator bei Pollengemischbestäubung in % [1, 6]	Pollenleistung in % [1, 6]	Pollensterilität in % [1, 6]	Kornzahl der Ähre bei freier Bestäubung [2]	Kornzahl der Ähre im Isolator [2]	Prozentsatz der Sterilität [2]	Prozentsatz des Ansetzens von Samen bei freier Bestäubung [2]	Kornzahl der Ähre bei freier Bestäubung [3]	Kornzahl der Ähre unter Isolator [3]	Prozentsatz der Sterilität [3]	Prozentsatz des Ansetzens Samen bei freier Bestäubung [3]	Kornzahl der Ähre bei freier Bestäubung [4]	Kornzahl der Ähre unter Isolator [4]	Prozentsatz der Sterilität [4]	Prozentsatz des Ansetzens von Samen bei freier Bestäubung [4]	Kornzahl der Ähre bei freier Bestäubung [5]	Kornzahl der Ähre unter Isolator [5]	Prozentsatz der Sterilität [5]	Prozentsatz des Ansetzens von Samen bei freier Bestäubung [5]	further results
BrCCC(Br)Br [Beispiel 1, 1,1,3-Tribrompropan]	78,7%	0,0%	30,0%	100,0%																	Ansetzen bei freier Bestäubung in % (Sonnenblume Linie BK 119; [7]): 80,4%; Ansetzen im Isolator bei Pollengemischbestäubung in % (Sonnenblume Linie BK 119; [7]): 0,0%; Pollenstesterilität in % (Sonnenblume Linie BK 119; [7]): 100,0%
BrCC(Br)CBr [Beispiel 4, 1,2,3-Tribrompropan]					40,6	0,6	98,6%	82,0%	47,6	0,1	99,8%	90,3%	42,1	0,0	100,0%	88,0%	48,6	0,0	100,0%	94,2%	
CC(Br)CBr (stereo not shown) [Beispiel 5, 1,2-Dibrompropan]	84,5%	0,0%	13,1%	100,0%	42,7	0,2	99,5%	86,3%	48,1	0,0	100,0%	91,2%	46,4	0,0	100,0%	97,1%	47,5	0,3	99,4%	92,1%	Ansetzen bei freier Bestäubung in % (Sonnenblume Linie BK 119; [7]): 88,2%; Ansetzen im Isolator bei Pollengemischbestäubung in % (Sonnenblume Linie BK 119; [7]): 0,0%; Pollenstesterilität in % (Sonnenblume Linie BK 119; [7]): 100,0%
ClCC(Br)CBr (stereo not shown) [Beispiel 7, 1,2-Dibrom-3-chlorpropan]					45,2	0,0	100,0%	91,3%	50,2	0,4	99,2%	95,2%					45,8	0,6	98,8%	88,7%	Ansetzen bei freier Bestäubung in % [1, 8]: 81,4%; Ansetzen im Isolator bei Pollengemischbestäubung in % [1, 8]: 0,0%; Pollenleistung in % [1, 8]: 0,0%; Pollensterilität in % [1, 8]: 100,0%; Ansetzen bei freier Bestäubung in % (Sonnenblume Linie BK 119; [9]): 82,0%; Ansetzen im Isolator bei Pollengemischbestäubung in % (Sonnenblume Linie BK 119; [9]): 0,0%; Pollenstesterilität in % (Sonnenblume Linie BK 119; [9]): 100,0%
CCCCC(Br)CC(Br)(Br)Br (stereo not shown) [Beispiel 9, 1,1,1,3-Tetrabromheptan]													49,2	0,0	100,0%	103,0%					
CCCCC(Br)CC(Br)Br (stereo not shown) [Beispiel 10, 1,1,3-Tribromheptan]													52,6	0,0	100,0%	109,8%					
